Measurements published in ChEMBL document CHEMBL3243951, “Relationship between structure and antineoplastic activity of arylsulfonylhydrazones of 2-formylprydine N-oxide” (J Med Chem, 1978).

How the values were obtained:
Mus musculus [1] = assay: Toxicity in CD-1 mouse allografted with mouse sarcoma 180 cells assessed as change in body weight at 20 mg/kg, qd administered for 6 days measured during compound treatment (reference value: 30.2%); type: organism-based; set-up: dose 20 mg/kg; conditions: in vivo, 144 h
Sarcoma-180 [2] = assay: Antineoplastic activity against mouse sarcoma 180 cells allografted in CD-1 mouse assessed as increase in survival rate at 20 mg/kg, qd administered for 6 days relative to control; type: functional
Sarcoma-180 [3] = assay: Antineoplastic activity against mouse sarcoma 180 cells allografted in CD-1 mouse assessed as 50 day survivors at 20 mg/kg, qd administered for 6 days relative to control; type: functional
Mus musculus [4] = assay: Toxicity in BDF1 mouse allografted with mouse L1210 cells assessed as change in body weight at 80 mg/kg, qd administered for 6 days measured during compound treatment (reference value: 14.8%); type: organism-based; set-up: dose 80 mg/kg; conditions: in vivo, 144 h
Sarcoma-180 [5] = assay: Antineoplastic activity against mouse sarcoma 180 cells allografted in CD-1 mouse assessed as 50 day survivors at 60 mg/kg, qd administered for 6 days relative to control; type: functional
Sarcoma-180 [6] = assay: Antineoplastic activity against mouse sarcoma 180 cells allografted in CD-1 mouse assessed as increase in survival rate at 60 mg/kg, qd administered for 6 days relative to control; type: functional
L1210 [7] = assay: Antineoplastic activity against mouse L1210 cells allografted in BDF1 mouse assessed as survival time at 80 mg/kg, qd administered for 6 days (reference value: 8.4 days); type: functional
Mus musculus [8] = assay: Toxicity in CD-1 mouse allografted with mouse sarcoma 180 cells assessed as change in body weight at 60 mg/kg, qd administered for 6 days measured during compound treatment (reference value: 30.2%); type: organism-based; set-up: dose 60 mg/kg; conditions: in vivo, 144 h
Mus musculus [9] = assay: Toxicity in CD-1 mouse allografted with mouse sarcoma 180 cells assessed as change in body weight at 80 mg/kg, qd administered for 6 days measured during compound treatment (reference value: 30.2%); type: organism-based; set-up: dose 80 mg/kg; conditions: in vivo, 144 h
Sarcoma-180 [10] = assay: Antineoplastic activity against mouse sarcoma 180 cells allografted in CD-1 mouse assessed as increase in survival rate at 80 mg/kg, qd administered for 6 days relative to control; type: functional
Sarcoma-180 [11] = assay: Antineoplastic activity against mouse sarcoma 180 cells allografted in CD-1 mouse assessed as 50 day survivors at 80 mg/kg, qd administered for 6 days relative to control; type: functional
Sarcoma-180 [12] = assay: Antineoplastic activity against mouse sarcoma 180 cells allografted in CD-1 mouse assessed as 50 day survivors at 40 mg/kg, qd administered for 6 days relative to control; type: functional
Mus musculus [13] = assay: Toxicity in CD-1 mouse allografted with mouse sarcoma 180 cells assessed as change in body weight at 40 mg/kg, qd administered for 6 days measured during compound treatment (reference value: 30.2%); type: organism-based; set-up: dose 40 mg/kg; conditions: in vivo, 144 h
Sarcoma-180 [14] = assay: Antineoplastic activity against mouse sarcoma 180 cells allografted in CD-1 mouse assessed as increase in survival rate at 40 mg/kg, qd administered for 6 days relative to control; type: functional
L1210 [15] = assay: Antineoplastic activity against mouse L1210 cells allografted in BDF1 mouse assessed as survival time at 60 mg/kg, qd administered for 6 days (reference value: 8.4 days); type: functional
Mus musculus [16] = assay: Toxicity in BDF1 mouse allografted with mouse L1210 cells assessed as change in body weight at 60 mg/kg, qd administered for 6 days measured during compound treatment (reference value: 14.8%); type: organism-based; set-up: dose 60 mg/kg; conditions: in vivo, 144 h
L1210 [17] = assay: Antineoplastic activity against mouse L1210 cells allografted in BDF1 mouse assessed as survival time at 100 mg/kg, qd administered for 6 days (reference value: 8.4 days); type: functional
Mus musculus [18] = assay: Toxicity in BDF1 mouse allografted with mouse L1210 cells assessed as change in body weight at 100 mg/kg, qd administered for 6 days measured during compound treatment (reference value: 14.8%); type: organism-based; set-up: dose 100 mg/kg; conditions: in vivo, 144 h

`O=S(=O)(N/N=C/c1cc(N2CCOCC2)cc[n+]1[O-])c1ccccc1` was tested, and the Activity (Mus musculus [1]) was 1.4%, the T/C (Sarcoma-180 [2]) was 242% and the survival at 20 mg/kg (Sarcoma-180 [3]) was 0%.

`O=[N+]([O-])c1cccc(S(=O)(=O)N/N=C/c2cccc[n+]2[O-])c1` showed an Activity (Mus musculus [4]) of -5.4%, a survival at 60 mg/kg (Sarcoma-180 [5]) of 60% and a T/C (Sarcoma-180 [6]) of 390%. For the same molecule, the Survival (L1210 [7]) was 12.4 days and the Activity (Mus musculus [8]) was -7.5%.

Work on `Nc1ccc(S(=O)(=O)N/N=C/c2cccc[n+]2[O-])cc1` yielded a survival at 60 mg/kg (Sarcoma-180 [5]) of 0%, a T/C (Sarcoma-180 [6]) of 276% and an Activity (Mus musculus [8]) of 2.4%.

`COc1ccc(S(=O)(=O)N/N=C/c2cccc[n+]2[O-])cc1` gave an Activity (Mus musculus [9]) of -11.6%, a T/C (Sarcoma-180 [10]) of 356% and an Activity (Mus musculus [4]) of -4.9%. It also gave a survival at 80 mg/kg (Sarcoma-180 [11]) of 40% and a Survival (L1210 [7]) of 19.7 days.

In the case of `O=S(=O)(N/N=C/c1cc(Cl)cc[n+]1[O-])c1ccccc1`, the Activity (Mus musculus [1]) is reported as 10.8%, the T/C (Sarcoma-180 [2]) is reported as 156% and the survival at 20 mg/kg (Sarcoma-180 [3]) is reported as 0%.

For `O=[N+]([O-])c1cc[n+]([O-])c(/C=N/NS(=O)(=O)c2ccccc2)c1`, the survival at 60 mg/kg (Sarcoma-180 [5]) was 0%, the T/C (Sarcoma-180 [6]) was 293% and the Activity (Mus musculus [8]) was -5.4%.

`Nc1cccc(S(=O)(=O)N/N=C/c2cccc[n+]2[O-])c1` showed an Activity (Mus musculus [9]) of -10.3%, a T/C (Sarcoma-180 [10]) of 364% and a survival at 80 mg/kg (Sarcoma-180 [11]) of 0%.

Molecule `O=[N+]([O-])c1ccc(S(=O)(=O)N/N=C/c2cccc[n+]2[O-])cc1` has an Activity (Mus musculus [9]) of -7.1%, a T/C (Sarcoma-180 [10]) of 345% and a survival at 80 mg/kg (Sarcoma-180 [11]) of 10%.

Work on `O=S(=O)(N/N=C/c1cccc[n+]1[O-])c1ccccc1` yielded an Activity (Mus musculus [4]) of -8%, a survival at 40 mg/kg (Sarcoma-180 [12]) of 20% and a Survival (L1210 [7]) of 10.6 days. The Activity (Mus musculus [13]) was -5.2% and the T/C (Sarcoma-180 [14]) was 339%.

Work on `O=S(=O)(N/N=C/c1cccc[n+]1[O-])c1ccc(Br)cc1` yielded a survival at 40 mg/kg (Sarcoma-180 [12]) of 0%, an Activity (Mus musculus [13]) of -3.5% and a T/C (Sarcoma-180 [14]) of 240%.

For `O=S(=O)(N/N=C/c1cccc[n+]1[O-])c1cccc2ccccc12`, the survival at 60 mg/kg (Sarcoma-180 [5]) was 0%, the T/C (Sarcoma-180 [6]) was 261% and the Activity (Mus musculus [8]) was -3.4%.

Work on `Cc1ccc(S(=O)(=O)N/N=C/c2cccc[n+]2[O-])cc1` yielded an Activity (Mus musculus [4]) of -7.4%, a survival at 60 mg/kg (Sarcoma-180 [5]) of 0% and a T/C (Sarcoma-180 [6]) of 307%. The Survival (L1210 [7]) was 14.3 days and the Activity (Mus musculus [8]) was -8%.

Work on `C/C(=N\NS(=O)(=O)c1ccccc1)c1cccc[n+]1[O-]` yielded a survival at 60 mg/kg (Sarcoma-180 [5]) of 0%, a T/C (Sarcoma-180 [6]) of 130% and an Activity (Mus musculus [8]) of 23.5%.

In the case of `O=S(=O)(N/N=C/c1cccc[n+]1[O-])c1ccc(F)cc1`, the Survival (L1210 [15]) is reported as 11.8 days, the survival at 60 mg/kg (Sarcoma-180 [5]) is reported as 20% and the T/C (Sarcoma-180 [6]) is reported as 337%. The Activity (Mus musculus [16]) was 1.6% and the Activity (Mus musculus [8]) was -5.7%.

In the case of `O=S(=O)(N/N=C/c1cccc[n+]1[O-])c1ccc2c(c1)Cc1ccccc1-2`, the survival at 40 mg/kg (Sarcoma-180 [12]) is reported as 0%, the Activity (Mus musculus [13]) is reported as -4.7% and the T/C (Sarcoma-180 [14]) is reported as 276%.

`Cc1ccccc1S(=O)(=O)N/N=C/c1cccc[n+]1[O-]` showed a survival at 60 mg/kg (Sarcoma-180 [5]) of 0%, a T/C (Sarcoma-180 [6]) of 285% and an Activity (Mus musculus [8]) of -1.9%. The Survival (L1210 [17]) was 19.9 days and the Activity (Mus musculus [18]) was -11.1%.

In the case of `O=S(=O)(N/N=C/c1cccc[n+]1[O-])c1cccnc1`, the survival at 60 mg/kg (Sarcoma-180 [5]) is reported as 0%, the T/C (Sarcoma-180 [6]) is reported as 276% and the Activity (Mus musculus [8]) is reported as 0%.

With `O=S(=O)(N/N=C/c1cccc[n+]1[O-])c1ccc(Cl)cc1` the survival at 40 mg/kg (Sarcoma-180 [12]) was 0%, the Activity (Mus musculus [13]) was -0.6% and the T/C (Sarcoma-180 [14]) was 260%.

For `O=S(=O)(N/N=C/c1cccc[n+]1[O-])c1ccc2ccccc2c1`, the survival at 60 mg/kg (Sarcoma-180 [5]) was 0%, the T/C (Sarcoma-180 [6]) was 308% and the Activity (Mus musculus [8]) was -1.2%.

Work on `O=C(NNS(=O)(=O)c1ccccc1)c1cccc[n+]1[O-]` yielded a survival at 40 mg/kg (Sarcoma-180 [12]) of 0%, an Activity (Mus musculus [13]) of 20.7% and a T/C (Sarcoma-180 [14]) of 107%.
